Measured values as given in EPA's CvTdb concentration-time database.

Tests used:
Rat [1] = assay: concentration in plasma after dosing; conditions: 5 min; dosed: dichloroacetic acid; 10 mg/kg; iv; Male; F344
Rat [2] = assay: concentration in plasma after dosing
Rat [3] = assay: concentration in plasma after dosing; conditions: dosed: dichloroacetic acid, 100 mg/kg, oral, Male, F344
Rat [4] = assay: concentration in plasma after dosing; conditions: 3 h; dosed: Wyeth-14643; 1.0 mg/kg; oral; Male; Sprague-Dawley
Rat [5] = assay: concentration in heart after dosing; conditions: dosed: Thiodiglycolic Acid, 20 mg/kg, iv
Rat [6] = assay: concentration in liver after dosing; conditions: dosed: Thiodiglycolic Acid, 20 mg/kg, iv
Rat [7] = assay: concentration in thymus after dosing; conditions: dosed: Thiodiglycolic Acid, 20 mg/kg, iv

O=C(O)C(Cl)Cl [dichloroacetic acid]
Conditions | concentration in plasma [ng/mL]
Rat [1] | 15100

Rat [2], dosed: dichloroacetic acid
Conditions | concentration in plasma [ng/mL]
0.25 h, 10 mg/kg, oral, Male, Harlan Sprague Dawley | 1600
0.25 h, 100 mg/kg, oral, Male, F344 | 24900
0.5 h, 10 mg/kg, oral, Male, Harlan Sprague Dawley | 224
1 h, 40 mg/kg, oral, Female, Harlan Sprague Dawley | 5910
1 h, 60 mg/kg, iv, Female, Harlan Sprague-Dawley | 23200
1.25 h, 40 mg/kg, oral, Female, Harlan Sprague Dawley | 3600
1.25 h, 100 mg/kg, oral, Male, F344 | 23000
1.5 h, 40 mg/kg, oral, Female, Harlan Sprague Dawley | 4500
2 h, 40 mg/kg, oral, Female, Harlan Sprague Dawley | 2200
2 h, 60 mg/kg, iv, Female, Harlan Sprague-Dawley | 1670
2 h, 100 mg/kg, oral, Male, F344 | 44600
2 min, 10 mg/kg, iv, Male, F344 | 23500
2 min, 10 mg/kg, oral, Male, Harlan Sprague Dawley | 222
2 min, 40 mg/kg, oral, Female, Harlan Sprague Dawley | 1530
2 min, 100 mg/kg, oral, Male, F344 | 1590
4 h, 100 mg/kg, oral, Male, F344 | 49600
5 min, 10 mg/kg, iv, Male, F344 | 15300
5 min, 10 mg/kg, oral, Male, Harlan Sprague Dawley | 822
5 min, 40 mg/kg, oral, Female, Harlan Sprague Dawley | 3100
5 min, 100 mg/kg, oral, Male, F344 | 7760
6 h, 100 mg/kg, oral, Male, F344 | 25000
8 h, 100 mg/kg, oral, Male, F344 | 48300
10 min, 10 mg/kg, iv, Male, F344 | 7720
10 min, 10 mg/kg, oral, Male, Harlan Sprague Dawley | 1450
10 min, 40 mg/kg, oral, Female, Harlan Sprague Dawley | 9870
10 min, 100 mg/kg, oral, Male, F344 | 11800
20 min, 10 mg/kg, iv, Male, F344 | 1840
20 min, 10 mg/kg, oral, Male, Harlan Sprague Dawley | 829
20 min, 40 mg/kg, oral, Female, Harlan Sprague Dawley | 5350
20 min, 100 mg/kg, oral, Male, F344 | 5620
40 min, 10 mg/kg, oral, Male, Harlan Sprague Dawley | 184
40 min, 40 mg/kg, oral, Female, Harlan Sprague Dawley | 13900
40 min, 100 mg/kg, oral, Male, F344 | 53800
50 min, 10 mg/kg, oral, Male, Harlan Sprague Dawley | 170

Rat [3]
Conditions | concentration in plasma [ng/mL]
4 h | 25900
10 min | 8230

Cc1cccc(Nc2cc(Cl)nc(SCC(=O)O)n2)c1C
concentration in plasma [ng/mL], Rat [2], Male, Sprague-Dawley
Conditions | dosed: Wyeth-14643, 1.0 mg/kg | dosed: Wyeth-14643, 2.0 mg/kg | dosed: Wyeth-14643, 5.0 mg/kg
0.25 h, iv | – | 8890 | –
0.25 h, oral | 480 | 941 | 2340
0.5 h, iv | – | 4960 | –
0.5 h, oral | 493 | 1350 | 3240
1 h, iv | – | 2670 | –
1 h, oral | 548 | 1010 | 4080
2 h, iv | – | 682 | –
2 h, oral | 373 | 466 | 1930
2.5 min, iv | – | 28300 | –
3 h, iv | – | 253 | –
3 h, oral | 145 | 972 | –
4 h, iv | – | 218 | –
4 h, oral | – | 273 | 1050
5 h, oral | 357 | 312 | –
5 min, iv | – | 20700 | –
5 min, oral | – | 270 | 520
6 h, oral | – | 118 | 506
7 h, oral | 124 | – | –
8 h, oral | – | 305 | 421
24 h, oral | – | – | 129

Conditions | concentration in plasma [ng/mL]
Rat [4] | 180

O=C(O)CSCC(=O)O [Thiodiglycolic Acid]
Conditions | concentration in heart, Rat [5] [ng/g] | concentration in liver, Rat [6] [ng/g] | concentration in thymus, Rat [7] [ng/g]
1 h, Female, Harlan Sprague Dawley | 1670 | 71500 | 2560
1 h, Male, Harlan Sprague Dawley | 1760 | 107000 | 2750
2 h, Female, Harlan Sprague Dawley | 1120 | 21800 | 1650
2 h, Male, Harlan Sprague Dawley | 1340 | 108000 | 1940
3 h, Female, Harlan Sprague Dawley | 562 | 9460 | 1060
3 h, Male, Harlan Sprague Dawley | 1040 | 50900 | 1370
4 h, Female, Harlan Sprague Dawley | 414 | 2680 | 708
4 h, Male, Harlan Sprague Dawley | 476 | 45400 | 939
5.333 h, Female, Harlan Sprague Dawley | 232 | 2410 | 399
5.333 h, Male, Harlan Sprague Dawley | 388 | 29400 | 715
6.667 h, Female, Harlan Sprague Dawley | 238 | 2220 | 236
8 h, Female, Harlan Sprague Dawley | 328 | 246 | 487
10 h, Female, Harlan Sprague Dawley | – | 7570 | 215
10 h, Male, F344 | 362 | 4770 | 358
10 min, Female, Harlan Sprague Dawley | 8480 | 75000 | 8190
10 min, Male, F344 | 6870 | 148000 | 10000
20 min, Female, F344 | 4000 | 198000 | 3960
20 min, Female, Harlan Sprague Dawley | 4770 | 11000 | 4460
40 min, Female, Harlan Sprague Dawley | 2650 | 49400 | 3000
40 min, Male, Harlan Sprague Dawley | 2660 | 190000 | 2890

concentration in plasma [ng/mL], Rat [2], dosed: Thiodiglycolic Acid, 20 mg/kg, iv
Conditions | Female | Male
1 h, Harlan Sprague Dawley | 8500 | 1340
2 h, Harlan Sprague Dawley | 1220 | 751
3 h, Harlan Sprague Dawley | 520 | 553
4 h, Harlan Sprague Dawley | 228 | 332
5.333 h, Harlan Sprague Dawley | 302 | 247
8 h, Harlan Sprague Dawley | 200 | –
10 h, F344 | – | 215
10 min, F344 | – | 25600
10 min, Harlan Sprague Dawley | 37500 | –
20 min, F344 | 6700 | –
20 min, Harlan Sprague Dawley | 9230 | –
40 min, Harlan Sprague Dawley | 3520 | 1820

CCCCOC(=O)c1ccccc1C(=O)O [Mono-n-butyl phthalate]
Rat [2], dosed: Di-n-butyl phthalate, Male, Sprague-Dawley
Conditions | concentration in plasma [ng/mL]
0.25 h, 100 mg/kg, oral | 26200
0.5 h, 50 mg/kg, oral | 16600
0.5 h, 100 mg/kg, oral | 40300
1 h, 20 mg/kg, iv | 3060
1 h, 50 mg/kg, oral | 5560
1 h, 100 mg/kg, oral | 23500
1.5 h, 20 mg/kg, iv | 517
2 h, 20 mg/kg, iv | 945
2 h, 50 mg/kg, oral | 2700
2 h, 100 mg/kg, oral | 9480
2 h, 200 mg/kg, oral | 114000
3 h, 20 mg/kg, iv | 1380
3 h, 50 mg/kg, oral | 2390
3 h, 100 mg/kg, oral | 6880
4 h, 20 mg/kg, iv | 667
4 h, 100 mg/kg, oral | 10000
5 h, 20 mg/kg, iv | 1120
5 min, 20 mg/kg, iv | 29400
5 min, 50 mg/kg, oral | 3240
5 min, 100 mg/kg, oral | 6120
6 h, 20 mg/kg, iv | 627
6 h, 50 mg/kg, oral | 4090
6 h, 100 mg/kg, oral | 7390
8 h, 20 mg/kg, iv | 522
10 h, 50 mg/kg, oral | 506
10 h, 100 mg/kg, oral | 3970
10 min, 20 mg/kg, iv | 31300
10 min, 50 mg/kg, oral | 20500
15 h, 50 mg/kg, oral | 629
15 h, 100 mg/kg, oral | 538
20 h, 100 mg/kg, oral | 492
20 h, 200 mg/kg, oral | 1820
20 min, 20 mg/kg, iv | 24200
20 min, 50 mg/kg, oral | 13800
24 h, 100 mg/kg, oral | 517
40 min, 20 mg/kg, iv | 5840
40 min, 50 mg/kg, oral | 12000
